Data set [1] concerns HT-29 human colorectal carcinoma cells. The data set can be described thus: Cell growth inhibition assay, resazurin (Table 3.2). The format is cell-based. As to the method:
The cytotoxic effects of various derivatives of dehydrophenylahistin against HT-29 human colorectal carcinoma cells were determined.
HT-29 cells (ATCC; HTB-38) were maintained in ATCC recommended culture media and cultured in an incubator at 37° C. in 5% CO2 and 95% humidified air.
For cell growth inhibition assays, HT-29 cells were seeded at 5×10^3 cells/well in 90 μl complete media into a Corning 3904 black-walled, clear-bottom tissue culture plates and the plates were incubated overnight to allow cells to establish and enter log phase growth. 20 mM stock solutions of compounds were prepared in 100% DMSO and stored at −80° C. 10× concentrated serial dilutions of the compounds were prepared in culture medium for final concentrations ranging from 20 μM to […]. Ten μl volumes of the 10× serial dilutions were added to the test wells in triplicate and the plates returned to the incubator for 48 hours. The final concentration of DMSO was 0.25% in all samples.
Following 48 hours of drug exposure, 10 μl of 0.2 mg/ml resazurin (obtained from Sigma-Aldrich Chemical Co.) in Mg^2+, Ca^2+ free phosphate buffered saline was added to each well and the plates were returned to the incubator for 3-4 hours. […] Resazurin dye in medium without cells was used to determine the background, which was subtracted from the data for all experimental wells.
For orientation: Alamar Blue is a resazurin reagent that responds to reducing activity.

[2] abbreviates: Table 3.2, HT-29 cells, read-out: EC50 (M) Mean.

Like-named read-outs stand apart in the source and are kept apart here.

For `CC(C)(C)c1ocnc1/C=c1\[nH]c(=O)/c(=C/c2cccc3ccccc23)[nH]c1=O`, the melting point lay in the range of 168 to 170 °C.

The compound `Cc1cccc(/C=c2\[nH]c(=O)/c(=C/c3ncoc3C(C)(C)C)[nH]c2=O)c1` had a melting point of 151 to 153 °C.

Consider `CC(C)(C)c1ocnc1/C=c1\[nH]c(=O)/c(=C/c2cccc(Cl)c2Cl)[nH]c1=O`, for which the melting point lay in the range of 198 to 200 °C.

In turn, `CC(C)(C)c1ocnc1/C=c1\[nH]c(=O)/c(=C/c2ccccn2)[nH]c1=O` yielded a melting point of 230 to 232 °C.

Regarding `CC(C)(C)c1ocnc1/C=c1\[nH]c(=O)/c(=C/c2cccc([N+](=O)[O-])c2)[nH]c1=O`, the melting point lay within 225 to 227 °C.

Take `CC(C)(C)c1ocnc1/C=c1\[nH]c(=O)/c(=C/c2ccc(Cl)o2)[nH]c1=O`: the melting point is 214 to 216 °C.

Compound `C=Cc1cccc(/C=c2\[nH]c(=O)/c(=C/c3ncoc3C(C)(C)C)[nH]c2=O)c1` showed a melting point of 150 to 152 °C.

`Cc1cccc(/C=c2\[nH]c(=O)/c(=C/c3ncoc3C(C)(C)C)[nH]c2=O)c1C` had a melting point of 167 to 169 °C.

`CC(C)(C)c1ocnc1/C=c1\[nH]c(=O)/c(=C/c2cccc(C(F)(F)F)c2)[nH]c1=O` displayed a melting point of 243 to 245 °C.

The compound `CC(C)(C)c1ocnc1/C=c1\[nH]c(=O)/c(=C/c2ccnc3ccccc23)[nH]c1=O` registered a melting point of 106 to 108 °C.

In the case of `CC(C)(C)c1ocnc1/C=c1\[nH]c(=O)/c(=C/c2cccc(Oc3ccccc3)c2)[nH]c1=O`, the melting point lay in the range of 171 to 173 °C.

The compound `CC(C)(C)c1ocnc1/C=c1\[nH]c(=O)/c(=C/c2cc3ccccc3n2S(=O)(=O)c2ccccc2)[nH]c1=O` registered a melting point of 145 to 147 °C.

On to `CC(C)(C)c1ocnc1/C=c1\[nH]c(=O)/c(=C/c2ccc3nsnc3c2)[nH]c1=O`, for which the melting point was in the range of 234 to 236 °C.

For `CC(C)(C)c1ocnc1/C=c1\[nH]c(=O)/c(=C/c2cc3ccccc3s2)[nH]c1=O`, the melting point was in the range of 225 to 227 °C.

On to `CC(C)(C)c1ocnc1/C=c1\[nH]c(=O)/c(=C/c2cccc(Cl)c2)[nH]c1=O` [Compound 2467, tBu-Oxadelta-PLH-3-Cl], for which the EC50 in data set [1] (HT-29, read-out: EC50 (M) Mean) stood at 5.41e-08 M.

On to `CC(C)(C)c1ocnc1/C=c1\[nH]c(=O)/c(=C/c2cccc(Cl)c2Cl)[nH]c1=O` [Compound 2468, tBu-Oxadelta-PLH-2,3-diCl], for which, in data set [1] (HT-29, read-out: EC50 (M) Mean), the EC50 was determined as 7.92e-08 M.

With `COc1cc(/C=c2\[nH]c(=O)/c(=C/c3ncoc3C(C)(C)C)[nH]c2=O)cc(OC)c1` [Compound 2469, tBu-Oxadelta-PLH-3,5-diOMe], in data set [1] (setting [2]), the EC50 was 8.63e-08 M.

Turning to `CC(C)(C)c1ocnc1/C=c1\[nH]c(=O)/c(=C/c2cc(Cl)cc(Cl)c2)[nH]c1=O` [Compound 2470, tBu-Oxadelta-PLH-3,5-diCl], the concentration giving a half-maximal response (EC50) in data set [1] (setting [2]) was 2.78e-07 M.

With `CCOc1cccc(/C=c2\[nH]c(=O)/c(=C/c3ncoc3C(C)(C)C)[nH]c2=O)c1` [Compound 2471, tBu-Oxadelta-PLH-m-OEt], the EC50 in data set [1] (setting [2]) amounted to 1.01e-07 M.

In the case of `Cc1ccccc1/C=c1\[nH]c(=O)/c(=C/c2ncoc2C(C)(C)C)[nH]c1=O` [Compound 2472, tBu-Oxadelta-PLH-o-Me], in data set [1] (HT-29, read-out: EC50 (M) Mean), the EC50 was 5.46e-08 M.

`CC(C)(C)c1ocnc1/C=c1\[nH]c(=O)/c(=C/c2cccc(Br)c2)[nH]c1=O` [Compound 2473, tBu-Oxadelta-PLH-3-Br]: the EC50 in data set [1] (setting [2]) stood at 5.59e-08 M.

For the compound `CC(C)(C)c1ocnc1/C=c1\[nH]c(=O)/c(=C/c2ccccn2)[nH]c1=O` [Compound 2474, tBu-Oxadelta-PLH-2-Py], in data set [1] (HT-29, read-out: EC50 (M) Mean), the EC50 was greater than 6.32e-07 M.

For `CC(C)(C)c1ocnc1/C=c1\[nH]c(=O)/c(=C/c2ccccc2F)[nH]c1=O` [Compound 2475, tBu-Oxadelta-PLH-2-F], in data set [1] (setting [2]), the EC50 was determined as 4.66e-07 M.

For `CC(C)(C)c1ocnc1/C=c1\[nH]c(=O)/c(=C/c2ccccc2[N+](=O)[O-])[nH]c1=O` [Compound 2476, tBu-Oxadelta-PLH-2-NO2], the EC50 in data set [1] (setting [2]) was determined as 1.24e-07 M.

Turning to `CC(C)(C)c1ocnc1/C=c1\[nH]c(=O)/c(=C/c2cccc(OC(F)(F)F)c2)[nH]c1=O` [Compound 2477, tBu-Oxadelta-PLH-m-OCF3], the EC50 in data set [1] (setting [2]) was 4.86e-08 M.

Consider `CC(C)(C)c1ocnc1/C=c1\[nH]c(=O)/c(=C/c2ccoc2)[nH]c1=O` [Compound 2478, tBu-Oxadelta-PLH-3-furanyl], for which, in data set [1] (setting [2]), the 50% effective concentration (EC50) came out at 5.37e-08 M.

Consider `CC(C)(C)c1ocnc1/C=c1\[nH]c(=O)/c(=C/c2cccc([N+](=O)[O-])c2)[nH]c1=O` [Compound 2479, tBu-Oxadelta-PLH-m-NO2], for which the EC50 in data set [1] (HT-29, read-out: EC50 (M) Mean) was 1.08e-07 M.

As for `Cc1ccsc1/C=c1\[nH]c(=O)/c(=C/c2ncoc2C(C)(C)C)[nH]c1=O` [Compound 2480, tBu-Oxadelta-PLH-3-Me-2-thienyl], the half-maximal effective concentration (EC50) in data set [1] (setting [2]) came to 1.61e-07 M.

Turning to `CC(C)(C)c1ocnc1/C=c1\[nH]c(=O)/c(=C/c2ccc(Cl)o2)[nH]c1=O` [Compound 2481, tBu-Oxadelta-PLH-5-Cl-2-furyl], in data set [1] (HT-29, read-out: EC50 (M) Mean), the EC50 came out at 2.56e-07 M.

With `C=Cc1cccc(/C=c2\[nH]c(=O)/c(=C/c3ncoc3C(C)(C)C)[nH]c2=O)c1` [Compound 2482, tBu-Oxadelta-PLH-m-vinyl], the EC50 in data set [1] (HT-29, read-out: EC50 (M) Mean) is 2.65e-08 M.

`CC(C)(C)c1ocnc1/C=c1\[nH]c(=O)/c(=C/c2ccc(Br)o2)[nH]c1=O` [Compound 2483, tBu-Oxadelta-PLH-5-Br-2-furyl]: in data set [1] (HT-29, read-out: EC50 (M) Mean), the EC50 worked out at 2.48e-07 M.

For the compound `CC(C)(C)c1ocnc1/C=c1\[nH]c(=O)/c(=C/c2cccs2)[nH]c1=O` [Compound 2484, tBu-Oxadelta-PLH-2-thienyl], the EC50 in data set [1] (HT-29, read-out: EC50 (M) Mean) is 1.05e-07 M.

Consider `COc1ccccc1/C=c1\[nH]c(=O)/c(=C/c2ncoc2C(C)(C)C)[nH]c1=O` [Compound 2485, tBu-Oxadelta-PLH-2-OMe], for which, in data set [1] (setting [2]), the EC50 turned out to be 2.18e-07 M.

`Cc1cccc(/C=c2\[nH]c(=O)/c(=C/c3ncoc3C(C)(C)C)[nH]c2=O)c1C` [Compound 2486, tBu-Oxadelta-PLH-2,3-diMe]: the EC50 in data set [1] (HT-29, read-out: EC50 (M) Mean) stood at 1.43e-07 M.

For `CC(C)(C)c1ocnc1/C=c1\[nH]c(=O)/c(=C/c2ccsc2)[nH]c1=O` [Compound 2487, tBu-Oxadelta-PLH-3-thienyl], the 50% effective concentration (EC50) in data set [1] (setting [2]) was 7.93e-08 M.

For the compound `CC(C)(C)c1ocnc1/C=c1\[nH]c(=O)/c(=C/c2cccc(C(F)(F)F)c2)[nH]c1=O` [Compound 2488, tBu-Oxadelta-PLH-m-CF3], the EC50 in data set [1] (HT-29, read-out: EC50 (M) Mean) amounted to 2.49e-07 M.

As for `CC(C)(C)c1ocnc1/C=c1\[nH]c(=O)/c(=C\c2ccccc2)[nH]c1=O` [Compound 2489, (E)-tBu-delta-PLH], the EC50 in data set [1] (setting [2]) turned out to be 1.16e-07 M.

Turning to `CC(C)(C)c1ocnc1/C=c1\[nH]c(=O)/c(=C/CCc2ccccc2)[nH]c1=O` [Compound 2496, tBu-oxadelta-PLH-Ph-pr], the EC50 in data set [1] (setting [2]) was 9.48e-07 M.

With `CCOc1ccc2ccccc2c1/C=c1\[nH]c(=O)/c(=C/c2ncoc2C(C)(C)C)[nH]c1=O` [Compound 2497, tBu-oxadelta-PLH-2-OEt-1-naphth], in data set [1] (setting [2]), the EC50 was 5.23e-06 M.

Consider `COc1ccc2ccccc2c1/C=c1\[nH]c(=O)/c(=C/c2ncoc2C(C)(C)C)[nH]c1=O` [Compound 2498, tBu-oxadelta-PLH-2-OMe-1-naphth], for which, in data set [1] (setting [2]), the EC50 turned out to be 1.67e-06 M.

For the compound `CC(C)(C)c1ocnc1/C=c1\[nH]c(=O)/c(=C/c2c3ccccc3cc3ccccc23)[nH]c1=O` [Compound 2499, tBu-oxadelta-PLH-9-anth], the EC50 in data set [1] (setting [2]) was greater than 6.32e-06 M.

`CC(C)(C)c1ocnc1/C=c1\[nH]c(=O)/c(=C/c2ccnc3ccccc23)[nH]c1=O` [Compound 2500, tBu-oxadelta-PLH-4-quinoline]: the half-maximal effective concentration (EC50) in data set [1] (HT-29, read-out: EC50 (M) Mean) stood at 3.99e-07 M.

Take `CC(C)(C)c1ocnc1/C=c1\[nH]c(=O)/c(=C/c2cccc(Oc3ccccc3)c2)[nH]c1=O` [Compound 2501, tBu-oxadelta-PLH-3-phenoxy]: the EC50 in data set [1] (HT-29, read-out: EC50 (M) Mean) turned out to be 2.39e-08 M.

As for `CC(C)(C)c1ocnc1/C=c1\[nH]c(=O)/c(=C/c2ccc(-c3cccs3)s2)[nH]c1=O` [Compound 2502, tBu-oxadelta-PLH-2,2′-bitio], in data set [1] (setting [2]), the 50% effective concentration (EC50) was 1.88e-06 M.

`Cc1oc(-c2ccccc2)cc1/C=c1\[nH]c(=O)/c(=C/c2ncoc2C(C)(C)C)[nH]c1=O` [Compound 2505, tBu-oxadelta-PLH-2-Me-5-Ph-3-furyl]: in data set [1] (HT-29, read-out: EC50 (M) Mean), the EC50 was greater than 6.32e-06 M.

Take `CC(C)(C)c1ocnc1/C=c1\[nH]c(=O)/c(=C/c2cn(S(=O)(=O)c3ccccc3)c3ccccc23)[nH]c1=O` [Compound 2507, tBu-oxadelta-PLH-1-(Ph-sulfo)-3-indole]: the EC50 in data set [1] (setting [2]) was greater than 6.32e-06 M.

For `CC(C)(C)c1ocnc1/C=c1\[nH]c(=O)/c(=C/c2cc3ccccc3n2S(=O)(=O)c2ccccc2)[nH]c1=O` [Compound 2508, tBu-oxadelta-PLH-1-(Ph-sulfo)-2-indole], the EC50 in data set [1] (HT-29, read-out: EC50 (M) Mean) is greater than 6.32e-06 M.

With `CC(C)(C)c1ocnc1/C=c1\[nH]c(=O)/c(=C/c2ccc3nsnc3c2)[nH]c1=O` [Compound 2509, tBu-oxadelta-PLH-2,1,3-benzothiadiazole], the EC50 in data set [1] (HT-29, read-out: EC50 (M) Mean) came out at 4.04e-07 M.

For `CC(C)(C)c1ocnc1/C=c1\[nH]c(=O)/c(=C/c2cc3ccccc3s2)[nH]c1=O` [Compound 2510, tBu-oxadelta-PLH-2-benzothiophen], the EC50 in data set [1] (HT-29, read-out: EC50 (M) Mean) was greater than 2e-05 M.

With `CC(C)(C)c1ocnc1/C=c1\[nH]c(=O)/c(=C/c2cc(F)cc3c2OCOC3)[nH]c1=O` [Compound 2511, tBu-oxadelta-PLH-7-fluoro-2,4-benzodioxine], in data set [1] (HT-29, read-out: EC50 (M) Mean), the EC50 stood at 2.39e-08 M.

Take `CC(C)(C)c1ocnc1/C=c1\[nH]c(=O)/c(=C/c2cccc(C(=O)c3ccccc3)c2)[nH]c1=O` [Compound 2512, tBu-oxadelta-PLH-3-benzoyl]: in data set [1] (HT-29, read-out: EC50 (M) Mean), the EC50 turned out to be 3.86e-09 M.

Regarding `CC(C)(C)c1ocnc1/C=C1\NC(=O)[C@H](Cc2ccccc2)NC1=O` [Compound 2513, tBu-oxa-PLH], the EC50 in data set [1] (setting [2]) was 9.24e-07 M.

What is called melting point is the temperature, or range, at which the solid turns liquid. The EC50 is the concentration needed to bring the measured effect to its halfway point.
